Data as given in patent US9707244B2, “Compositions and methods for treating conditions that affect epidermis” (Gencia Corporation, priority 2013, dated 2017).
“Also recorded” adds a separate entry of the source.

Key:
[1] = system: AG16409 untransformed human skin fibroblasts from a person; experiment: Cellular senescence assay (SA-β-Gal fluorometric), young fibroblasts; type: cell-based; details: increasing concentration
Text: Senescent cells show common biochemical markers such as expression of an acidic senescence-associated β-galactosidase (SA-β-Gal) activity. While senescence has been characterized primarily in cultured cells, there is also evidence that it occurs in vivo. Cells expressing markers of senescence such as SA-β-Gal have been identified in normal tissues. To determine whether modified Mitocreatine analogues may influence the scenesence in aged fibroblasts, a 96-well Cellular Senescence Assay (SA-β-Gal Fluorometric Format) Cat # CBA-231 Cell Biolabs, Inc. was employed and buffers referenced were supplied by the manufacturer and in some cases freshly prepared prior to usage according to the manufacturer's instructions.
The cells utilized were Human Skin Fibroblast acquired from Coriell Cell Repository. The cell line AG11073 is untransformed human skin fibroblasts from a person. The primary culture was initiated from explants of a 2 mm-punch biopsy. The cell line AG16409 was untransformed human skin fibroblasts from a person.
Cells were grown in a 96 well plate. […]
50 μL, of the reaction mixture was removed to a 96-well plate suitable for fluorescence measurement. The reaction was stopped by adding 200 μL of Stop solution and fluorescence was measured with a fluorescence plate reader (PHERA Star FS from BMG Labtech) at 360 nm (Excitation)/465 nm (Emission).

[2] = system: BJ human fibroblast cells; experiment: Survival of fibroblasts treated with chemotherapeutic agents (DAPI fluorescence); type: cell-based; details: 48 hours, added simultaneously
Procedure: Fibroblasts were incubated with increasing amounts of Mitocreatine and certain anti-neoplastic agents, such as Cetuximab, Gemcitabine and Temozolomide. After incubation, cells were washed and the number of adherent (i.e. surviving) cells was assessed by DAPI fluorescence, which was measured utilizing a plate reader (PHERA Star FS from BMG Labtech). For these experiments two kinds of cells were used. Either the Human hepatocellular liver carcinoma cell line HepG2, or the BJ human fibroblast cells, which are established from normal human foreskin. […] Mitocreatine and the antineoplastic agent were added simultaneously.

C57BL/6J mice [3] = experiment: Forced treadmill endurance test; type: in vivo; details: 10, 20, 30 mg/kg p.o. once daily for 30 days
Procedure: Group Setting: C57BL/6J mice were randomly assigned into five groups with different treatment started with balanced full-paw and fore-paw grip strength. Seventy five female mice were dosed at 4 PM for 30 consecutive days (qd). • 1. Vehicle (p.o. via oral gavage once daily for 30 days, n=15) • 2. Creatine (300 mg/kg, p.o. via oral gavage once daily for 30 days, n=15) • 3. Mitocreatine (10 mg/kg, p.o. via oral gavage once daily for 30 days, n=15) • 4. Mitocreatine (20 mg/kg, p.o. via oral gavage once daily for 30 days, n=15) • 5. Mitocreatine (30 mg/kg, p.o. via oral gavage once daily for 30 days, n=15). 75 mice (group 1-5) were tested on the treadmill with a previously optimized protocol as described below. The mice were habituized to the treadmill at two separate occasions, with a habituation protocol. Mice were allowed to acclimate to the testing room for at least 30 min before tested. Mice were initially placed on a treadmill running at 5 m/min for 2 minutes. The treadmill belt was set horizontally. The treadmill speed was then increased to 20 m/min in […] at steps of 5 m/min in every 10 sec with the shocking grid set at 0.2 mA. Mice were allowed to run for 20 minutes. […] The total running time until exhaustion was recorded. […] Data were expressed as Mean±S.E.M. and analyzed with one-way ANOVA followed by Bonferroni test compared to vehicle group, *P<0.05, **P<0.01 (FIG. 32).

C57BL/6J mice [4] = experiment: Fore-limb grip strength test; type: in vivo; details: 10, 20, 30 mg/kg p.o. once daily for 30 days
Procedure: Group Setting: C57BL/6J mice were randomly assigned into five groups with different treatment started with balanced full-paw and fore-paw grip strength. Seventy five female mice were dosed at 4 PM for 30 consecutive days (qd). • 1. Vehicle (p.o. via oral gavage once daily for 30 days, n=15) • 2. Creatine (300 mg/kg, p.o. via oral gavage once daily for 30 days, n=15) • 3. Mitocreatine (10 mg/kg, p.o. via oral gavage once daily for 30 days, n=15) • 4. Mitocreatine (20 mg/kg, p.o. via oral gavage once daily for 30 days, n=15) • 5. Mitocreatine (30 mg/kg, p.o. via oral gavage once daily for 30 days, n=15). One hundred female mice were tested before dosing for a baseline of grip strength. 75 mice were selected and randomly assigned into 5 groups for different treatment. Seventy five mice (group 1-5) were test on day 31. Mice were allowed to acclimate to the testing room for at least 30 min before tested. All animals were marked on the tail with a permanent mark pen. Mouse was lowered towards the grid on the push-pull gauge until it grabbed with both front paws Animal was gently pulled backwards by the tail with an angle less than 15° until it released its grip of both fore-paws. The maximal fore-limb grip force was recorded on the strain gauge. Test was repeated 3 times with 15 min interval each time and the average was used. […]

**Q.** What does the source list for CN(CC(=O)NCCC[P+](c1ccccc1)(c1ccccc1)c1ccccc1)C(=N)N.Cl.[Cl-] [Mitocreatine, N^2-[ammonio(imino)methyl]-N^2-methyl-N-[3-(triphenylphosphonio)propyl] glycinamide dichloride]?
**A.** β-galactosidase expression/activity (senescence marker) [1]: this decrease failed to reach statistical significance; also recorded: statistically insignificant decrease; survival of fibroblasts ([2]; Gemcitabine (80 μM)): improved the survival; survival of fibroblasts ([2]; Temozolomide (1 mM)): improved the survival; survival of fibroblasts ([2]; high concentrations of Cetuximab): improved the survival; endurance (total running time) (C57BL/6J mice [3]): Increases Endurance; strength (fore limb grip force) (C57BL/6J mice [4]): Increases Endurance and Strength
